Test results taken from patent US7935714B2, “Compositions for sleeping disorders” (Bright Future Pharmaceutical Laboratories, priority 2004, dated 2011).

System: male Wistar rats
Assay: Telemetry EEG study of NREM sleep (sleep latency and quality) in freely moving male Wistar rats
Format: in vivo
Details: for sleep latency / NREM sleep during the second hour following treatment / NREM sleep within the first hour following treatment: zolpidem
Experimental: Telemetric EEG, activity and temperature monitors were surgically implanted sub-coetaneously onto the lower backs of male Wistar rats, under ketamie and xyalsine (75/10 mg/kg, i.p.) anaesthesia. A skin incision was made above the scull and the transmitter tunnelled subcutaneously from the neck to the lower back with blunted scissors. The EEG leads were placed into two 0.5 mm holes that were drilled stererotaxically 2 mm anterior to Lambda and 1 mm to the left and right of centre, so that contact was made with the durra, and fixed with quick drying glue and reinforced with dental cement. The incision was then closed with 4-0 silk suture and post operative temgesic applied for pain relief. Following a 4 week recovery and acclimatization period in individually housed ventilated cages (12 hour light/12 hour dark cycle 20-25° C.), the rats were orally treated with either test compounds, positive controls or vehicle 45-30 min prior commencement of their light cycle (sleeping period). A Latin square dosing regiment was used where each rat received each of the drugs tested in random order with 4 days clearance time between each dosing. EEG waveforms were analysed using a power spectral analysis of each 5 second epoch and scored manually into % duration of NREM sleep for each hour over a 12 hour period. […] Data were analysed using Two-way ANOVA versus vehicle treatment (*p<0.05, n=7).

[1] = p.o., zopiclone 5 mg/kg, Compound Mixture 50 mg/kg, compared to vehicle
[2] = p.o., zopiclone 5 mg/kg, Compound Mixture 50 mg/kg, versus vehicle

| SMILES | sleep quality during the 6th hour of sleep (5 mg/kg p.o., versus vehicle) | sleep latency [1] | NREM sleep during the second hour following treatment [2] | NREM sleep within the first hour following treatment [2] | NREM sleep duration during the 8th hour [2] | NREM sleep during the remainder of the sleep period (5 mg/kg p.o., compared to vehicle) |
| --- | --- | --- | --- | --- | --- | --- |
| CN1CCN(C(=O)OC2c3nccnc3C(=O)N2c2ccc(Cl)cn2)CC1 (stereo not drawn) [zopiclone] | negative effect on sleep quality | significantly reduce sleep latency | not significantly different from vehicle treatment | significantly increased | significantly improved | – |
| Cc1ccc(-c2nc3ccc(C)cn3c2CC(=O)N(C)C)cc1 [zolpidem] | – | significantly reduce sleep latency | not significantly different from vehicle treatment | significantly increased | – | failed to significantly improve NREM sleep |
